From US20230184743A1, “SCREENING METHODS TO IDENTIFY SMALL MOLECULE COMPOUNDS THAT PROMOTE OR INHIBIT THE GROWTH OF CIRCULATING TUMOR CELLS, AND USES THEREOF” (University of Southern California, priority 2020, published 2023) come the findings set out here.

In one test the test system is single BRx68 cells. In words: Single CTC proliferation over 24 days (AUC), BRx68 line. It is filed as cell-based, human. As to the method:
(§1) Cell culture. CTC lines were previously derived from metastatic breast cancer patients. CTC lines were cultured in ultra-low attachment plates with RPMI 1640 medium, supplemented with EGF (20 ng/mL), bFGF (20 ng/mL), 1×B27 and 1× antibiotic/antimycotic, in 4% 02 and 5% CO2. Single CTCs were cultured in GravityTRAP™ ULA 96 well Plates (PerkinElmer). Wells on the edges of the plates were not used to avoid influence from evaporation. Media with fresh compounds were exchanged every 3 days by inserting pipet tips onto the platform of the wells to prevent accidentally aspirating suspended CTCs at the bottom. CTC numbers were counted manually under an inverted microscope every 6 days.
(§2) FACS sorting. […]
(§3) Statistical analysis. […] AUC was calculated for each well in each batch, by plotting days in the x-axis and the corresponding number of cells in the y-axis, then drawing a line to connect the number of cells from the starting count day to the next count day until the end day, and finally calculating the area under this line as the sum of areas of trapezoids. […] Statistical tests were performed using R. For absolute number of cells quantification, total number of cells at end of experiment in each well in each batch was compared between treated cells and untreated control and significance was analyzed with Student t test. […]

The next test has as its system BRx68-GFP+ cells. In words: RNA-seq analysis of pools of growing single cell clones. The class given is cell-based, human. The following applies: day 6; NAC 0.3 mM, P4D8 1 μM. As to the method:
RNA-seq analysis. BRx68-GFP+ cells were sorted, with 1 cell per well, using the MoFlo cell sorter (Beckman Coulter). Single cells were cultured in the presence of CTC media containing either 1 μM of P1C2, P4D8, or P1G7, or 0.3 mM of NAC or a combination of 1 μM of P1C2 and 0.3 mM of NAC. Cells cultured in media containing DMSO served as a control. All cells were cultured for either 6 days or 13 days at 37° C., 5% CO2 and 4% O2, and media was changed every 3 days. For both day 6 and day 13 groups, only clones with more than 3 cells at day 6 were harvested and pooled to a maximum of 50 cells. […] Libraries were sequenced on an Illumina NextSeq500 to obtain 75 bp-long single-end reads.
RNA-sequencing reads were trimmed for Nextera and Illumina adapter sequences using Trim Galore under default parameters. Trimmed reads were then mapped to the human genome build GRCh37 from Ensembl (ftp:/][/ftp.ensembl.org/pub/grch37/current/fasta/homo_sapiens/dna/Homo_sapiens.GRCh37.dna_sm.primary_as sembly.fa.gz) using STAR under optimized parameters for single-end sequenced data. Aligned reads were then counted via feature-Counts and piped into DESeq2 for normalization to sequencing depth and downstream analysis. […]

In test [1] the test system is single CTCs from 4 patient-derived CTC lines (BRx07, BRx42, BRx50, and BRx68). In words: Validation of candidate compounds: single CTC proliferation over 24 days (AUC). The class given is cell-based, human. As for the experimental part: as §1
FACS sorting. Cells were pelleted and resuspended into single cell suspension in 1% BSA in PBS buffer with 7-AAD. Live single CTCs were sorted directly into 96-well GravityTRAP™ ULA Plates using a MoFlo cell sorter (Beckman Coulter). An inverted microscope was used to manually confirm that there was 1 CTC per well, 1 hour after sorting.
Compounds screening. Compounds were from the StemSelect library obtained from the Choi Family Therapeutic Screening Facility at the Eli and Edythe Broad CIRM Center for Regenerative Medicine and Stem Cell Research at USC. Each compound was given a code to ensure unbiased assessment and blinded to the investigators. Compound information is listed in Appendix, at Table 1 of US Provisional Application No. U.S. 62/990,445, incorporated herein by reference). In the first-round screening, compounds were used with […] concentration. Stocks of compounds (10 mM concentration in DMSO) were stored in aliquots at −80° C. All compounds were thawed and refrozen for a maximum of 2 times. In the second-round validation, fresh compounds were dissolved in DMSO (Millipore sigma), and aliquots were stored at −20° C. and used only once without refreezing. Only wells started from single cells on day 0 after sorting were used in the screening experiment. Data collection was done in batches.
as §3, with “test. For other experiments, data were analyzed with Student t test, and represent the means±SEM of at least triplicate samples or averages ±SD of independent analyses, as indicated.” for “test.”

In a further test the test system is BRx42. In words: Single CTC proliferation over 24 days (AUC), BRx42 line. It is filed as cell-based, human. As for the experimental part:
as §1, §2, §3

Test [2] deals with breast cancer circulating tumor cell (CTC). The experiment in a line: Breast cancer CTC growth screen. The class given is cell-based, human. The settings on record: added at 1 uM. As for the experimental part:
Using the assay system described herein CTC were contact with a panel of small molecule drugs and the effect of the drugs on cell growth, migration, proliferation and gene expression was measured. […] This was initially found in a breast cancer circulating tumor cell (CTC) growth screen.

Test [3] concerns MCF7 cells, MDA-MB-231 cells, T47D cells. In words: Senescence assay: β-galactosidase activity. The class given is cell-based. The settings on record: various concentrations. The source says:
(A) MCF7 cells. (B) MDA-MB-231 cells. (C) T47D cells.
Because an arrested state in which the cell remains viable, are not stimulated to divide by serum or passage in culture, a specific cell cycle profile is illicited that differs from most damage-induced arrest processes or contact inhibition. Characteristics of senescence cells include an enlarged cell size, expression of pH-dependent β-galactosidase activity, and an altered pattern of gene expression. To determine these characteristics, CTC cells were cultured with a compound of Formula II or cx-4945 (Silmitasertib) at various concentrations and β-galactosidase activity was measured.

As to `CCNCc1cc(C(C)(C)C)c(O)c(C(C)(C)C)c1` [P4D8, LY 231617], the single cell growth entry in the test with single BRx68 cells is listed as “promote single cell growth”; in test [1] (other lines (than BRx68)), “inhibit growth”. Besides, in the test with BRx68-GFP+ cells, the “lipid metabolism pathway enrichment (IPA of differentially expressed genes) compared with control” value was “enriched”.

Turning to `N#C/C(=C\c1ccc(-c2cc(Cl)ccc2Cl)o1)C(=O)Nc1cccc2ncccc12` [P1G3, AGK2], the single cell growth entry with BRx42 is “promote single cell growth”.

Turning to `COc1cc(Nc2ncc3ccn(-c4cccc(CCC#N)c4)c3n2)cc(OC)c1OC` [Formula II, 3-(3-(2-(3,4,5-Trimethoxy-phenylamino)-7H-pyrrolo[2,3-d]pyrimidin-7-yl)phenyl)propionitrile], in test [1] (4 different CTC lines over 24 days), the “proliferation of single CTCs (AUC measurement)” value is “inhibition of the proliferation”. For the same compound, in test [2], the CTC growth result was “stopped growing”. For the same compound, the “induced senescence (β-galactosidase activity) relative to CX-4945” value in test [3] is on record as 3-4 fold.
